Where “and” joins values, the source holds several entries; their conditions need not be identical. Equal entries are not always repeated.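 In this assay, cells in 96-well plates receive the compound at five concentrations for 48 hours. Endpoints are linearly interpolated between the surrounding concentrations. GI50 marks 50% less growth. TGI denotes the concentration required for complete inhibition of growth.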
Assays:
Assay in all cases: NCI-60 cell line screen, 48 h
DMS 273 small cell lung = tested on: DMS 273 small cell lung
MDA-MB-435 = tested on: MDA-MB-435
DMS 114 small cell lung = tested on: DMS 114 small cell lung
OVCAR-5 ovarian = tested on: OVCAR-5 ovarian
SF-295 CNS = tested on: SF-295 CNS
MDA-MB-231 breast = tested on: MDA-MB-231 breast
HCC-2998 colon = tested on: HCC-2998 colon
NCI-H23 lung = tested on: NCI-H23 lung
HOP-62 NSCLC = tested on: HOP-62 NSCLC
KM20L2 colon = tested on: KM20L2 colon

COc1nc(C(Cl)(Cl)Cl)c(Cl)c(OC)c1Cl
TGI (DMS 273 small cell lung): 75.3 µM | TGI (MDA-MB-435): 79.7 µM | GI50 (DMS 114 small cell lung): 19.7 µM | TGI (DMS 114 small cell lung): 45.9 µM and 61.6 µM | TGI (OVCAR-5 ovarian): > 72.4 µM and 78.7 µM | TGI (SF-295 CNS): > 56.9 µM and 75.3 µM | TGI (MDA-MB-231 breast): 72.5 µM | TGI (HCC-2998 colon): > 58.3 µM and 95 µM | GI50 (NCI-H23 lung): > 31.6 µM | TGI (NCI-H23 lung): > 31.6 µM and 79.4 µM | GI50 (HOP-62 NSCLC): > 43.2 µM | TGI (HOP-62 NSCLC): > 62.8 µM and 22.5 µM | GI50 (KM20L2 colon): 21 µM | TGI (KM20L2 colon): 55.7 µM and 85.2 µM

OC1/C(=C/c2ccccc2)CNC/C1=C\c1ccccc1 (stereo unspecified)
TGI (DMS 273 small cell lung): > 100 µM | TGI (DMS 114 small cell lung): > 100 µM | TGI (OVCAR-5 ovarian): > 100 µM | TGI (SF-295 CNS): > 100 µM | TGI (HCC-2998 colon): > 100 µM | TGI (HOP-62 NSCLC): > 100 µM | TGI (KM20L2 colon): > 100 µM

Cn1c(=O)c2nc3sc4ccccc4c(=N)n3c2n(C)c1=O
TGI (DMS 273 small cell lung): > 100 µM | TGI (DMS 114 small cell lung): > 100 µM | TGI (OVCAR-5 ovarian): > 100 µM | TGI (SF-295 CNS): > 100 µM | TGI (HCC-2998 colon): > 100 µM | TGI (NCI-H23 lung): > 100 µM | TGI (HOP-62 NSCLC): > 100 µM

O=C1OC(/C=C/c2ccccc2)C(=O)C1=O (stereo unspecified)
TGI (DMS 273 small cell lung): > 100 µM | TGI (OVCAR-5 ovarian): > 100 µM | TGI (SF-295 CNS): > 100 µM | TGI (HCC-2998 colon): > 100 µM | TGI (NCI-H23 lung): > 100 µM | TGI (HOP-62 NSCLC): > 100 µM | TGI (KM20L2 colon): > 100 µM

CC12CCC(C)(c3cc(O)c(O)cc31)c1cc(O)c(O)cc12
TGI (DMS 273 small cell lung): 37.5 µM | TGI (DMS 114 small cell lung): 31.1 µM | TGI (OVCAR-5 ovarian): 48.1 µM | TGI (SF-295 CNS): 46.8 µM | TGI (HCC-2998 colon): 33.6 µM | TGI (NCI-H23 lung): 75.5 µM | TGI (HOP-62 NSCLC): 67.8 µM | TGI (KM20L2 colon): 39.2 µM

O=c1c2ccc(Br)cc2nc(-c2ccccc2)n1NC1OC(CO)C(O)C(O)C1O (stereo unspecified)
TGI (DMS 273 small cell lung): > 100 µM | TGI (DMS 114 small cell lung): > 100 µM | TGI (OVCAR-5 ovarian): > 100 µM | TGI (SF-295 CNS): > 100 µM | TGI (HCC-2998 colon): > 100 µM | TGI (NCI-H23 lung): > 100 µM | TGI (HOP-62 NSCLC): > 100 µM | TGI (KM20L2 colon): > 100 µM

CCOC(=O)/C(C#N)=C/c1[nH]c(C)c(C)c1C
TGI (DMS 273 small cell lung): > 100 µM | TGI (DMS 114 small cell lung): > 100 µM | TGI (OVCAR-5 ovarian): > 100 µM | TGI (SF-295 CNS): > 100 µM | TGI (HCC-2998 colon): > 100 µM | TGI (NCI-H23 lung): > 100 µM | TGI (HOP-62 NSCLC): > 100 µM | TGI (KM20L2 colon): > 100 µM

O=C(NCCOCCO)c1ccc(O)cc1
TGI (DMS 273 small cell lung): > 100 µM | TGI (DMS 114 small cell lung): > 100 µM | TGI (NCI-H23 lung): > 100 µM | TGI (HOP-62 NSCLC): > 100 µM | TGI (KM20L2 colon): > 100 µM

CCC1(O)CC(c2ccccc2)N(C)C(c2ccccc2)C1 (stereo unspecified)
TGI (DMS 273 small cell lung): > 100 µM | TGI (DMS 114 small cell lung): > 100 µM | TGI (OVCAR-5 ovarian): > 100 µM | TGI (SF-295 CNS): > 100 µM | TGI (HCC-2998 colon): > 100 µM | TGI (NCI-H23 lung): > 100 µM | TGI (HOP-62 NSCLC): > 100 µM | TGI (KM20L2 colon): > 100 µM

COc1cc(C2C(C(=O)Nc3ccccc3C)=C(C)NC(C)=C2C(=O)Nc2ccccc2C)ccc1O
TGI (DMS 273 small cell lung): > 100 µM | TGI (DMS 114 small cell lung): > 100 µM | TGI (OVCAR-5 ovarian): > 100 µM | TGI (SF-295 CNS): > 100 µM | TGI (HCC-2998 colon): > 100 µM | TGI (NCI-H23 lung): > 100 µM | TGI (HOP-62 NSCLC): > 100 µM | TGI (KM20L2 colon): > 100 µM

C[C@]12CC[C@H](O)CC1CCC[C@@H]2O (stereo partly specified)
TGI (DMS 273 small cell lung): > 100 µM | TGI (DMS 114 small cell lung): > 100 µM | TGI (SF-295 CNS): > 100 µM | TGI (HCC-2998 colon): > 100 µM | TGI (NCI-H23 lung): > 100 µM | TGI (HOP-62 NSCLC): > 100 µM

CCN(CC)[C@@H]1c2cc3c(cc2C(c2cc(OC)c(O)c(OC)c2)C2C(=O)CO[C@@H]21)OCO3 (stereo partly specified)
TGI (DMS 273 small cell lung): > 100 µM | TGI (DMS 114 small cell lung): > 100 µM | TGI (OVCAR-5 ovarian): > 100 µM | TGI (SF-295 CNS): > 100 µM | TGI (HCC-2998 colon): > 100 µM | TGI (NCI-H23 lung): > 100 µM | TGI (HOP-62 NSCLC): > 100 µM | TGI (KM20L2 colon): > 100 µM

Fc1cccc(C2SCc3nc4ccccc4n32)c1 (stereo unspecified)
TGI (DMS 273 small cell lung): > 100 µM | TGI (DMS 114 small cell lung): > 100 µM | TGI (OVCAR-5 ovarian): 79.3 µM | TGI (SF-295 CNS): > 100 µM | TGI (HCC-2998 colon): > 100 µM | TGI (NCI-H23 lung): > 100 µM

O=c1cc(/C=C/c2ccccc2)c2ccc(O/C(=C\c3ccccc3)c3nc4ccccc4c(=O)o3)cc2o1
TGI (DMS 273 small cell lung): > 100 µM | TGI (DMS 114 small cell lung): 71.7 µM | TGI (OVCAR-5 ovarian): > 100 µM | TGI (SF-295 CNS): > 100 µM | TGI (HCC-2998 colon): > 100 µM | TGI (NCI-H23 lung): 28.7 µM | TGI (HOP-62 NSCLC): 84.7 µM | TGI (KM20L2 colon): > 100 µM

Cn1c(=O)ccc2cc(C(=O)c3ccccc3)ccc21
TGI (DMS 273 small cell lung): > 100 µM | TGI (DMS 114 small cell lung): 81.1 µM | TGI (OVCAR-5 ovarian): > 100 µM | TGI (SF-295 CNS): > 100 µM | TGI (HCC-2998 colon): > 100 µM | TGI (NCI-H23 lung): > 100 µM | TGI (HOP-62 NSCLC): > 100 µM | TGI (KM20L2 colon): > 100 µM

COc1ccc2c(c1)[n+](=O)c(C(=O)C/C(=N\NC(=O)C[N+](C)(C)C)C(=O)Nc1cc(Cl)ccc1Cl)c(C)n2O
TGI (DMS 273 small cell lung): > 100 µM | TGI (OVCAR-5 ovarian): > 100 µM | TGI (SF-295 CNS): > 100 µM | TGI (HCC-2998 colon): > 100 µM | TGI (NCI-H23 lung): > 100 µM | TGI (HOP-62 NSCLC): > 100 µM

N[C@@H](Cc1ccc(N(CCCl)CCCl)cc1)C(=O)O
GI50 (DMS 273 small cell lung): 6.97 µM | TGI (DMS 273 small cell lung): 33.6 µM and 68.3 µM | GI50 (MDA-MB-435): 63.4 µM | TGI (MDA-MB-435): > 100 µM and 105 µM | GI50 (DMS 114 small cell lung): 13 µM | TGI (DMS 114 small cell lung): 29.1 µM and 86.4 µM | GI50 (OVCAR-5 ovarian): 19.1 µM | TGI (OVCAR-5 ovarian): > 100 µM and 64.7 µM and 140 µM | GI50 (SF-295 CNS): 3.95 µM and 16 µM | TGI (SF-295 CNS): 49.2 µM and 72.1 µM and 128 µM | GI50 (MDA-MB-231 breast): > 100 µM | TGI (MDA-MB-231 breast): > 100 µM and 134 µM | GI50 (HCC-2998 colon): 75.5 µM and 22.1 µM | TGI (HCC-2998 colon): > 100 µM and 62.2 µM and 95.4 µM | GI50 (NCI-H23 lung): 20.6 µM and 12.5 µM | TGI (NCI-H23 lung): > 100 µM and 45.5 µM and 84.7 µM | GI50 (HOP-62 NSCLC): 28.7 µM and 4.34 µM | GI50 (KM20L2 colon): 14 µM | TGI (KM20L2 colon): > 31.6 µM and 193 µM

O=CN/C=C\c1cc(O)ccc1O
TGI (DMS 273 small cell lung): > 41.1 µM | TGI (DMS 114 small cell lung): 52.3 µM | TGI (OVCAR-5 ovarian): > 100 µM | TGI (SF-295 CNS): > 100 µM | TGI (HCC-2998 colon): > 100 µM | TGI (NCI-H23 lung): > 56.1 µM | TGI (HOP-62 NSCLC): 60.2 µM | TGI (KM20L2 colon): > 62.4 µM

OC1OC2COC(c3ccccc3)OC2C(O)C1O (stereo unspecified)
TGI (DMS 273 small cell lung): > 100 µM | TGI (DMS 114 small cell lung): > 100 µM | TGI (OVCAR-5 ovarian): > 100 µM | TGI (SF-295 CNS): > 100 µM | TGI (HCC-2998 colon): > 100 µM | TGI (NCI-H23 lung): > 100 µM | TGI (HOP-62 NSCLC): > 100 µM | TGI (KM20L2 colon): > 100 µM

CC(=O)c1ccc(-c2ccc(C(C)=O)s2)s1
TGI (DMS 273 small cell lung): > 100 µM | TGI (DMS 114 small cell lung): 2.76 µM | TGI (OVCAR-5 ovarian): > 100 µM | TGI (SF-295 CNS): > 100 µM | TGI (HCC-2998 colon): > 100 µM | TGI (NCI-H23 lung): > 100 µM | TGI (HOP-62 NSCLC): > 100 µM | TGI (KM20L2 colon): > 100 µM

C=C1[C@@H]2CCC(C)(C)[C@H]1CCC(=O)[C@@H]2C(=O)OC
TGI (DMS 273 small cell lung): > 100 µM | TGI (DMS 114 small cell lung): > 100 µM | TGI (SF-295 CNS): > 100 µM | TGI (HCC-2998 colon): > 100 µM | TGI (NCI-H23 lung): > 100 µM | TGI (HOP-62 NSCLC): > 100 µM | TGI (KM20L2 colon): > 100 µM

Nc1c2c(c(O)c3c1=C(CO)C=N3)=NCCS2=O (stereo unspecified)
GI50 (MDA-MB-435): 1.86 µM | TGI (MDA-MB-435): 3.41 µM | GI50 (OVCAR-5 ovarian): 1.66 µM | TGI (OVCAR-5 ovarian): 3.91 µM | GI50 (SF-295 CNS): 2.12 µM | TGI (SF-295 CNS): 4.12 µM | GI50 (MDA-MB-231 breast): 2.82 µM | TGI (MDA-MB-231 breast): 9.69 µM | GI50 (HCC-2998 colon): 1.21 µM | TGI (HCC-2998 colon): 2.81 µM | GI50 (NCI-H23 lung): 0.615 µM | TGI (NCI-H23 lung): 5.64 µM | GI50 (HOP-62 NSCLC): 1.86 µM | TGI (HOP-62 NSCLC): 3.38 µM
